Data reported in patent US12691186B2, “B7-H3 miniproteins, conjugates, and uses thereof” (priority 2023, dated 2026).

Tested on: >6,500 different human proteins
Test: Off-target binding, cell microarray platform (Retrogenix Assay) in HEK293 cells
Conditions: biotin-labeled molecules
Experimental: To evaluate potential off-target binding, eight biotin-labeled molecules were tested in a cell microarray platform (Charles River Lab, Retrogenix Assay) having >6,500 different human proteins spanning diverse functions and subcellular locations.
Initially, two pools of molecules were tested. Pool #1 consisted of C298, C300, C302, C304, and pool #2 consisted of C306, C308, C310, and C312 at 2 μg/mL for each molecule. To perform this assay, HEK293 cells were plated on a dish and localized spots of cells were transiently over-expressed with a cDNA encoding for one of the >6,500 targets. Included in this library were two isoforms of CD276 (B7-H3) and B7-H3 related proteins (B7-1, B7-2, B7-H1/PD-L1, and B7-H2). The molecule pools were incubated on the fixed, over-expressing cell microarrays (n=2 per protein), and binding was visualized using Alexa Fluor 647 streptavidin fluorescence. All transfection efficiencies exceeded minimum thresholds for the microarray expression targets. Preliminary interactions identified from pooled results were re-spotted in duplicates, and each of the eight compounds were tested individually (n=2) at 2 μg/mL and/or in dose response against these targets as described above to validate the interactions.
All positive control interactions were strong and passed quality control. Specific interactions observed (median SNR≥1) confirmed on-target B7-H3 binding in two different isoforms for each of the eight test molecules. These interactions with the primary target occurred after fixation and in live cells (absence of fixation). No significant additional interactions were confirmed for any test molecules outside of B7-H3, indicating high specificity for the primary target (data not shown).

| Compound | background binding to untransfected HEK293 cells |
| --- | --- |
| CC[C@H](C)[C@@H]1NC(=O)[C@H](Cc2ccccc2)NC(=O)[C@H](C)NC(=O)[C@H](CCCCN(C)C)NC(=O)[C@H]([C@@H](C)CC)NC(=O)[C@H](CCC(N)=O)NC(=O)[C@H](C)NC(=O)[C@H](Cc2ccc(O)cc2)NC(=O)[C@H]([C@@H](C)O)NC(=O)[C@H](CC(C)C)NC(=O)[C@@H]2CSSC[C@@H](C(=O)N[C@@H](CO)C(N)=O)NC(=O)[C@H](CC(C)C)NC(=O)[C@H](CCC(=O)O)NC(=O)[C@H](CCCCN)NC(=O)[C@H](C)NC(=O)[C@H](CCC(=O)O)NC(=O)[C@H](CO)NC(=O)[C@H](CC(C)C)NC(=O)[C@H]([C@@H](C)CC)NC(=O)[C@H](CCC(=O)O)NC(=O)[C@H](C)NC(=O)[C@H](CO)NC(=O)[C@H](CCC(N)=O)NC(=O)[C@H](CSSC[C@H](NC(=O)CCOCCOCCOCCOCCNC(=O)CCCC[C@@H]3SC[C@@H]4NC(=O)N[C@@H]43)C(=O)N[C@@H](C)C(=O)N[C@@H](CCCNC(=N)N)C(=O)N[C@@H](CCC(=O)O)C(=O)N[C@@H](CCCCN)C(=O)N[C@@H]([C@@H](C)CC)C(=O)N[C@@H](C)C(=O)N[C@@H](C)C(=O)N[C@@H](CC(C)C)C(=O)N[C@@H](CO)C(=O)N[C@@H](CCC(=O)O)C(=O)N[C@@H]([C@@H](C)CC)C(=O)N[C@@H]([C@@H](C)CC)C(=O)N[C@@H](Cc3c[nH]c4ccccc34)C(=O)N[C@@H](CC(C)C)C(=O)N3CCC[C@H]3C(=O)N2)NC(=O)[C@@H]2CCCN2C(=O)[C@H](CC(=O)O)NC(=O)[C@H](CC(=O)O)NC(=O)[C@H](CC(N)=O)NC(=O)[C@H](CC(C)C)NC(=O)[C@H](C)NC(=O)[C@H](C)NC1=O [Compound C300] | low-background binding |
| CC[C@H](C)[C@@H]1NC(=O)[C@H](Cc2ccccc2)NC(=O)[C@H](C)NC(=O)[C@H](CCCCNC)NC(=O)[C@H]([C@@H](C)CC)NC(=O)[C@H](CCC(N)=O)NC(=O)[C@H](C)NC(=O)[C@H](Cc2ccc(O)cc2)NC(=O)[C@H]([C@@H](C)O)NC(=O)[C@H](CC(C)C)NC(=O)[C@@H]2CSSC[C@@H](C(=O)N[C@@H](CO)C(N)=O)NC(=O)[C@H](CC(C)C)NC(=O)[C@H](CCC(=O)O)NC(=O)[C@H](CCCCNC)NC(=O)[C@H](C)NC(=O)[C@H](CCC(=O)O)NC(=O)[C@H](CO)NC(=O)[C@H](CC(C)C)NC(=O)[C@H]([C@@H](C)CC)NC(=O)[C@H](CC(N)=O)NC(=O)[C@H](C)NC(=O)[C@H](CO)NC(=O)[C@H](CCC(N)=O)NC(=O)[C@H](CSSC[C@H](NC(=O)CCOCCOCCOCCOCCNC(=O)CCCC[C@@H]3SC[C@@H]4NC(=O)N[C@@H]43)C(=O)N[C@@H](C)C(=O)N[C@@H](CCCNC(=N)N)C(=O)N[C@@H](CCC(=O)O)C(=O)N[C@@H](CCCCN)C(=O)N[C@@H]([C@@H](C)CC)C(=O)N[C@@H](C)C(=O)N[C@@H](C)C(=O)N[C@@H](CC(C)C)C(=O)N[C@@H](CO)C(=O)N[C@@H](CCC(=O)O)C(=O)N[C@@H]([C@@H](C)CC)C(=O)N[C@@H]([C@@H](C)CC)C(=O)N[C@@H](Cc3c[nH]c4ccccc34)C(=O)N[C@@H](CC(C)C)C(=O)N3CCC[C@H]3C(=O)N2)NC(=O)[C@@H]2CCCN2C(=O)[C@H](CC(=O)O)NC(=O)[C@H](CC(=O)O)NC(=O)[C@H](CC(N)=O)NC(=O)[C@H](CC(C)C)NC(=O)[C@H](C)NC(=O)[C@H](C)NC1=O [Compound C302] | low-background binding |
| CC[C@H](C)[C@@H]1NC(=O)[C@H](Cc2ccccc2)NC(=O)[C@H](C)NC(=O)[C@H](CCCCNC)NC(=O)[C@H]([C@@H](C)CC)NC(=O)[C@H](CCC(N)=O)NC(=O)[C@H](C)NC(=O)[C@H](Cc2ccc(O)cc2)NC(=O)[C@H]([C@@H](C)O)NC(=O)[C@H](CC(C)C)NC(=O)[C@@H]2CSSC[C@@H](C(=O)N[C@@H](CO)C(N)=O)NC(=O)[C@H](CC(C)C)NC(=O)[C@H](CCC(=O)O)NC(=O)[C@H](CCCCNC)NC(=O)[C@H](C)NC(=O)[C@H](CCC(=O)O)NC(=O)[C@H](CO)NC(=O)[C@H](CC(C)C)NC(=O)[C@H]([C@@H](C)CC)NC(=O)[C@H](CCC(=O)O)NC(=O)[C@H](CO)NC(=O)[C@H](CO)NC(=O)[C@H](CCC(N)=O)NC(=O)[C@H](CSSC[C@H](NC(=O)CCOCCOCCOCCOCCNC(=O)CCCC[C@@H]3SC[C@@H]4NC(=O)N[C@@H]43)C(=O)N[C@@H](C)C(=O)N[C@@H](CCCC[N+](C)(C)C)C(=O)N[C@@H](CCC(=O)O)C(=O)N[C@@H](CCCCN)C(=O)N[C@@H]([C@@H](C)CC)C(=O)N[C@@H](C)C(=O)N[C@@H](C)C(=O)N[C@@H](CC(C)C)C(=O)N[C@@H](CO)C(=O)N[C@@H](CCC(=O)O)C(=O)N[C@@H]([C@@H](C)CC)C(=O)N[C@@H]([C@@H](C)CC)C(=O)N[C@@H](Cc3c[nH]c4ccccc34)C(=O)N[C@@H](CC(C)C)C(=O)N3CCC[C@H]3C(=O)N2)NC(=O)[C@@H]2CCCN2C(=O)[C@H](CC(=O)O)NC(=O)[C@H](CC(=O)O)NC(=O)[C@H](CC(N)=O)NC(=O)[C@H](CC(C)C)NC(=O)[C@H](C)NC(=O)[C@H](C)NC1=O [Compound C304] | low-background binding |
| CC[C@H](C)[C@@H]1NC(=O)[C@H](Cc2ccccc2)NC(=O)[C@H](C)NC(=O)[C@H](CCCCNC)NC(=O)[C@H]([C@@H](C)CC)NC(=O)[C@H](CCC(N)=O)NC(=O)[C@H](C)NC(=O)[C@H](Cc2ccc(O)cc2)NC(=O)[C@H](CC(N)=O)NC(=O)[C@H](CC(C)C)NC(=O)[C@@H]2CSSC[C@@H](C(=O)N[C@@H](CO)C(N)=O)NC(=O)[C@H](CC(C)C)NC(=O)[C@H](CCC(=O)O)NC(=O)[C@H](CCCCNC)NC(=O)[C@H](C)NC(=O)[C@H](CCC(=O)O)NC(=O)[C@H](CO)NC(=O)[C@H](CC(C)C)NC(=O)[C@H]([C@@H](C)CC)NC(=O)[C@H](CCC(=O)O)NC(=O)[C@H](CO)NC(=O)[C@H](CO)NC(=O)[C@H](CCC(N)=O)NC(=O)[C@H](CSSC[C@H](NC(=O)CCOCCOCCOCCOCCNC(=O)CCCC[C@@H]3SC[C@@H]4NC(=O)N[C@@H]43)C(=O)N[C@@H](C)C(=O)N[C@@H](CCCC[N+](C)(C)C)C(=O)N[C@@H](CCC(=O)O)C(=O)N[C@@H](CCCCN)C(=O)N[C@@H]([C@@H](C)CC)C(=O)N[C@@H](C)C(=O)N[C@@H](C)C(=O)N[C@@H](CC(C)C)C(=O)N[C@@H](CO)C(=O)N[C@@H](CCC(=O)O)C(=O)N[C@@H]([C@@H](C)CC)C(=O)N[C@@H]([C@@H](C)CC)C(=O)N[C@@H](Cc3c[nH]c4ccccc34)C(=O)N[C@@H](CC(C)C)C(=O)N3CCC[C@H]3C(=O)N2)NC(=O)[C@@H]2CCCN2C(=O)[C@H](CC(=O)O)NC(=O)[C@H](CC(=O)O)NC(=O)[C@H](CC(N)=O)NC(=O)[C@H](CC(C)C)NC(=O)[C@H](C)NC(=O)[C@H](C)NC1=O [Compound C310] | low-background binding |
| CC[C@H](C)[C@@H]1NC(=O)[C@H](Cc2ccccc2)NC(=O)[C@H](C)NC(=O)[C@H](CCCCNC)NC(=O)[C@H]([C@@H](C)CC)NC(=O)[C@H](CCC(N)=O)NC(=O)[C@H](C)NC(=O)[C@H](Cc2ccc(O)cc2)NC(=O)[C@H]([C@@H](C)O)NC(=O)[C@H](CC(C)C)NC(=O)[C@@H]2CSSC[C@@H](C(=O)N[C@@H](CO)C(N)=O)NC(=O)[C@H](CC(C)C)NC(=O)[C@H](CCC(=O)O)NC(=O)[C@H](CCCCNC)NC(=O)[C@H](C)NC(=O)[C@H](CCC(=O)O)NC(=O)[C@H](CO)NC(=O)[C@H](CC(C)C)NC(=O)[C@H]([C@@H](C)CC)NC(=O)[C@H](CCC(=O)O)NC(=O)[C@H](CO)NC(=O)[C@H](CO)NC(=O)[C@H](CC(N)=O)NC(=O)[C@H](CSSC[C@H](NC(=O)CCOCCOCCOCCOCCNC(=O)CCCC[C@@H]3SC[C@@H]4NC(=O)N[C@@H]43)C(=O)N[C@@H](C)C(=O)N[C@@H](CCCC[N+](C)(C)C)C(=O)N[C@@H](CCC(=O)O)C(=O)N[C@@H](CCCCN)C(=O)N[C@@H]([C@@H](C)CC)C(=O)N[C@@H](C)C(=O)N[C@@H](C)C(=O)N[C@@H](CC(C)C)C(=O)N[C@@H](CO)C(=O)N[C@@H](CCC(=O)O)C(=O)N[C@@H]([C@@H](C)CC)C(=O)N[C@@H]([C@@H](C)CC)C(=O)N[C@@H](Cc3c[nH]c4ccccc34)C(=O)N[C@@H](CC(C)C)C(=O)N3CCC[C@H]3C(=O)N2)NC(=O)[C@@H]2CCCN2C(=O)[C@H](CC(=O)O)NC(=O)[C@H](CC(=O)O)NC(=O)[C@H](CC(N)=O)NC(=O)[C@H](CC(C)C)NC(=O)[C@H](C)NC(=O)[C@H](C)NC1=O [Compound C312] | low-background binding |
| C298 (CAXEKIAALSEIIWLPCLTYAQIXAFIAALNDDPCQSSEILSEAKELCS; Biotin-PEG4 N-term, methylated lysines, C-amide; SITE 3 trimethyllysine; SITE 24 dimethyllysine) [Compound C298] | low-background binding |
